Results published in patent US12527746B2, “Peptide/particle delivery systems” (The Johns Hopkins University, priority 2009, dated 2026).
Non-standard residues stand in square brackets, D forms with d. No end group written: not given here. Abu = CC[C@H](N)C(=O)O

Tests used:
[1] = tested on: lymphatic endothelial cells; assay: Anti-proliferative and anti-migratory activity of free peptides on lymphatic endothelial cells; assay type: cell-based
Excerpt: (§1) It is believed that this peptide is the first antilymphangiogenic peptide agent.

endothelial cells [2] = assay: Anti-proliferative and anti-migratory activity of free peptides on endothelial cells; assay type: cell-based
Excerpt: Several classes of peptides have been developed that show either anti-proliferative or anti-migratory activity or both on endothelial cells. These peptides appear to function through distinct mechanisms of action and have been tested both in vitro and in vivo in tumor xenografts and in ocular mouse models.
as §1

rho/VEGF (V6) mouse = assay: rho/VEGF (V6) mouse, genetic model of wet age-related macular degeneration; assay type: in vivo, mice; conditions: 8 weeks after injection
Excerpt: Referring now to FIG. 49 in shown the in vivo effects of microparticle formulations in both the CNV and rho/VEGF model over time. DEAH (SP6001)-336 PBAE nanoparticle formulation made as described previously (“DEAH” disclosed as SEQ ID NO: 2484). […] (Middle) and (Bottom) A genetic model of wet form of age-related macular degeneration in mice used to test long-term effect of microparticles. […] While PLGA is used to form the microparticles used above, other polymers may be used including the synthetic polyesters and polyamides described above. In certain embodiments, blends of these polymer are combined with PLGA to form microparticles with differing environmental sensitivity and release properties; (a) the effect of microparticle (SP-6001) in CNV model mouse; (b) the effect of microparticle (SP-6001) in rho/VEGF (V6) mouse, 1 week after injection; and (c) the effect of microparticle (SP-6001) in rho/VEGF (V6) mouse, 8 weeks after injection.

[3] = tested on: MDA-MB-231 tumor xenograft; assay: MDA-MB-231 breast cancer xenograft, orthotopic, i.p. peptide; set-up: species or system SCID mice; conditions: mouse, in vivo
Excerpt: BMC Cancer 2010; 10:29, and in a breast cancer xenograft model using MDA-MB-231 cells. Koskimaki J E, Karagiannis E D, Rosca E V, Vesuna F, Winnard P T, Jr., Raman V, et al. Peptides derived from type IV collagen, CXC chemokines, and thrombospondin-1 domain-containing proteins inhibit neovascularization and suppress tumor growth in MDA-MB-231 breast cancer xenografts. Neoplasia 2009; 11(12):1285-91.
Following orthotopic inoculation of SCID mice in the mammary fat pad area using 2×10^6 cells, tumors grew to approximately 100 mm^3 in 2 weeks; at that time 100 μL of peptide solution was injected i.p. once a day at peptide doses 10-20 mg/kg. PBS solution was injected as control. […] The microvessel density was determined by screening the immunohistologically stained CD31 sections. Inhibition of LEC migration in the ACEA migration assay also was determined (see FIG. 33B).

CNV laser mouse model = assay: CNV laser mouse model, intravitreous injection, choroidal flat mounts; assay type: in vivo, C57 BL/6 female mice; conditions: day 14
Excerpt: Referring now to FIG. 9 is shown in vivo 336 polymer nanoparticle/SP6001 DEAH peptide (“DEAH” disclosed as SEQ ID NO: 2484); Peptide-336 polymer nanoparticles were formulated as previously described and intravitreously injected to test in vivo efficacy. ACNV laser mouse model was used on C57 BL/6 female mice. The mice receive laser eye treatments on day zero, followed by the intravitreous injections. Mice are then perfused with fluorescein labeled dextran on day 14 and choroidal flat mounts (bottom) were analyzed via fluorescence microscopy.
Referring now to FIG. 49 in shown the in vivo effects of microparticle formulations in both the CNV and rho/VEGF model over time. DEAH (SP6001)-336 PBAE nanoparticle formulation made as described previously (“DEAH” disclosed as SEQ ID NO: 2484). […] (Middle) and (Bottom) A genetic model of wet form of age-related macular degeneration in mice used to test long-term effect of microparticles. […] While PLGA is used to form the microparticles used above, other polymers may be used including the synthetic polyesters and polyamides described above. […]

endothelial cells [4] = assay: Endothelial cell proliferation, peptides encapsulated in polymeric particles vs free peptides; assay type: cell-based; conditions: encapsulated within polymeric particles compared to unencapsulated
Excerpt: Changes to polymer structure, including small changes to the ends of the polymer only, can vary biophysical properties of these particles. These properties can be important to tune for effective in vivo peptide delivery. A small subset of the potential polymer library was screened to measure the effect of encapsulating the antiangiogenic peptides chemokinostatin-1 and pentastatin-1 within polymeric particles compared to unencapsulated, free peptides. […] An example of representative polymers encapsulating peptides is provided in Scheme 5.

Row | Substance | anti-proliferative and anti-migratory activity (endothelial cells [2]) | inhibition of endothelial cell proliferation (endothelial cells [4]) | also measured
1 | LLRISLLLIESWLE [SP5033] | anti-proliferative and anti-migratory activity | – | anti-proliferative and anti-migratory activity [1]: anti-proliferative and anti-migratory activity
2 | LRRFSTMPFMF-Abu-NINNV-Abu-NF (LRRFSTMPFMF[Abu]NINNV[Abu]NF; listed as Homo sapiens) [SP2012] | highly potent anti-proliferative and anti-migratory | – | –
3 | EIELVEEEPPF [SP6001, 11-mer anti-angiogenic peptide derived from the serpin domain of DEAH box polypeptide] | – | – | inhibition of angiogenesis (rho/VEGF (V6) mouse): no longer inhibits angiogenesis; tumor xenograft growth [3]: significant inhibition; angiogenesis in the eye (CNV laser mouse model): significantly reduced angiogenesis
4 | NGRKACLNPASPIVKKIIEKMLNS [Chemokinostatin] | – | enhanced the ability of the peptides to inhibit the proliferation of endothelial cells | –
5 | LRRFSTMPFMFCNINNVCNF [Pentastatin] | – | enhanced the ability of the peptides to inhibit the proliferation of endothelial cells | –
